Measurements reported in US7989482B2, “Indoline anti-cancer agents” (Joyant Pharmaceuticals, Inc., priority 2008, dated 2011).
Like-named read-outs stand apart in the source and are kept apart here.

Assays:
A2058 cells = assay: Cell viability assay (CELL-TITER-GLO) in A2058 cells; type: cell-based; conditions: A2058 cells, 48 hour treatment, cell viability, read-out: IC50 (μM) A2058
Description: (§1) Cell viability assays were run using standard protocols known to those of skill in art. Cells were plated in 96 well plates at the density of 3,000-10,000 cells per well. Twenty four hours later, cells were treated with increasing concentration of test compounds (1 nM to 1 μM). After another 48 hour, cell survival was measured using CELL-TITER-GLO® reagent (Promega) following the protocol provided by the manufacture. The IC50 value was determined as the concentration of test compound that kills 50% of the cell population.
(§2) Cell viability data generated according to the protocol described in Example 97 was generated for representative compounds in A2058 and U937 cells.

U937 cells = assay: Cell viability assay (CELL-TITER-GLO) in U937 cells; type: cell-based; conditions: U937 cells, 48 hour treatment, cell viability, read-out: IC50 (μM) U937
Description: as §1, §2

| SMILES | IC50 (A2058 cells; Homo sapiens, A2058, 48 h) [µM] | IC50 (U937 cells; Homo sapiens, U-937, 48 h) [µM] | other results |
| --- | --- | --- | --- |
| COC(=O)c1nc2oc1C13c4cc(ccc4O[C@@H]1Nc1c(-c4cccc5[nH]ccc45)cccc13)C[C@H](NC(=O)[C@@H](O)C(C)C)C(=O)N[C@H]2C(C)C (stereo partly shown) [Example 39] | > 1 | > 1 | – |
| COC(=O)c1nc2oc1C13c4cc(ccc4O[C@@H]1Nc1c(-c4c(C)cccc4C)cccc13)C[C@H](NC(=O)[C@@H](O)C(C)C)C(=O)N[C@H]2C(C)C (stereo partly shown) [Example 40] | > 1 | > 1 | – |
| COC(=O)c1nc2oc1C13c4cc(ccc4O[C@@H]1Nc1c(-c4ccncc4)cccc13)C[C@H](NC(=O)[C@@H](O)C(C)C)C(=O)N[C@H]2C(C)C (stereo partly shown) [Example 41] | > 1 | > 1 | – |
| COC(=O)c1nc2oc1C13c4cc(ccc4O[C@@H]1Nc1c(-c4c(C)c(C)cc(C)c4C)cccc13)C[C@H](NC(=O)[C@@H](O)C(C)C)C(=O)N[C@H]2C(C)C (stereo partly shown) [Example 42] | > 1 | > 1 | – |
| CC(C)[C@H](O)C(=O)N[C@H]1Cc2ccc3c(c2)C2(C4=C(C5=NCCO5)N=C(O4)[C@H](C(C)C)NC1=O)c1ccccc1N[C@H]2O3 (stereo partly shown) [Example 43] | 0.533 | 0.697 | – |
| COC(=O)[C@@H]1COC(c2nc3oc2C24c5ccccc5N[C@H]2Oc2ccc(cc24)C[C@H](NC(=O)[C@@H](O)C(C)C)C(=O)N[C@H]3C(C)C)=N1 (stereo partly shown) [Example 44] | > 1 | > 1 | – |
| COC(=O)[C@H]1COC(c2nc3oc2C24c5ccccc5N[C@H]2Oc2ccc(cc24)C[C@H](NC(=O)[C@@H](O)C(C)C)C(=O)N[C@H]3C(C)C)=N1 (stereo partly shown) [Example 45] | 0.329 | 0.185 | – |
| CCC(O)(CC)C(=O)N[C@H]1Cc2ccc3c(c2)C2(C4=C(c5nc(C(=O)OC)co5)N=C(O4)[C@H](C(C)C)NC1=O)c1ccccc1N[C@H]2O3 (stereo partly shown) [Example 47] | 0.077 | 0.019 | – |
| COC(=O)c1coc(-c2nc3oc2C24c5ccccc5N[C@H]2Oc2ccc(cc24)C[C@H](NC(=O)[C@@H](O)C(C)(C)C)C(=O)N[C@H]3C(C)C)n1 (stereo partly shown) [Example 48] | 0.058 | 0.039 | – |
| COC(=O)c1coc(-c2nc3oc2C24c5ccccc5N[C@H]2Oc2ccc(cc24)C[C@H](NC(=O)[C@@H](O)C(C)(C)C)C(=O)N[C@H]3C(C)C)n1 (stereo partly shown) [Example 49] | – | – | IC50 (A2058 cells): 0.049 µM; IC50 (U937 cells): 0.04 µM |
| [H][C@@]1(C(=O)N[C@H]2Cc3ccc4c(c3)C3(C5=C(c6nc(C(=O)OC)co6)N=C(O5)[C@H](C(C)C)NC2=O)c2ccccc2N[C@H]3O4)CCCO1 (stereo partly shown) [Example 50] | 0.075 | 0.04 | – |
| COC(=O)c1coc(-c2nc3oc2C24c5ccccc5N[C@H]2Oc2ccc(cc24)C[C@H](NC(=O)C2(O)CCCCC2)C(=O)N[C@H]3C(C)C)n1 (stereo partly shown) [Example 51] | 0.056 | 0.04 | – |
| CCC(C)(O)C(=O)N[C@H]1Cc2ccc3c(c2)C2(C4=C(c5nc(C(=O)OC)co5)N=C(O4)[C@H](C(C)C)NC1=O)c1ccccc1N[C@H]2O3 (stereo partly shown) [Example 52] | 0.108 | 0.028 | – |
| CCC(C)(C)C(=O)N[C@H]1Cc2ccc3c(c2)C2(C4=C(c5nc(C(=O)OC)co5)N=C(O4)[C@H](C(C)C)NC1=O)c1ccccc1N[C@H]2O3 (stereo partly shown) [Example 53] | 0.357 | 0.068 | – |
| CCCCCCc1cccc2c1N[C@H]1Oc3ccc4cc3C21c1oc(nc1-c1nc(C(=O)OC)co1)[C@H](C(C)C)NC(=O)[C@@H](NC(=O)[C@@H](O)C(C)C)C4 (stereo partly shown) [Example 54] | 0.164 | 0.063 | – |
| CCC(O)(CC)C(=O)N[C@H]1Cc2ccc3c(c2)C2(C4=C(c5nc(C(=O)O)co5)N=C(O4)[C@H](C(C)C)NC1=O)c1ccccc1N[C@H]2O3 (stereo partly shown) [Example 55] | – | – | IC50 (A2058 cells; Homo sapiens): > 1 µM; IC50 (U937 cells; Homo sapiens, U-937): 0.9 µM |
| CC(C)[C@H](O)C(=O)N[C@H]1Cc2ccc3c(c2)C2(C4=C(c5nc(C(=O)O)co5)N=C(O4)[C@H](C(C)C)NC1=O)c1ccccc1N[C@H]2O3 (stereo partly shown) [Example 56] | – | – | IC50 (A2058 cells; Homo sapiens): 0.841 µM; IC50 (U937 cells; Homo sapiens, U-937): 0.736 µM |
| CNC(C(=O)N[C@H]1Cc2ccc3c(c2)C2(C4=C(c5nc(C(=O)OC)co5)N=C(O4)[C@H](C(C)C)NC1=O)c1ccccc1N[C@H]2O3)C(C)C (stereo partly shown) [Example 57] | 0.313 | 0.111 | – |
| CNC(=O)c1coc(-c2nc3oc2C24c5ccccc5N[C@H]2Oc2ccc(cc24)C[C@H](NC(=O)[C@@H](O)C(C)C)C(=O)N[C@H]3C(C)C)n1 (stereo partly shown) [Example 58] | > 1 | > 1 | – |
| CC(C)[C@H](O)C(=O)N[C@H]1Cc2ccc3c(c2)C2(C4=C(c5nc(C(=O)NC(C)(C)C)co5)N=C(O4)[C@H](C(C)C)NC1=O)c1ccccc1N[C@H]2O3 (stereo partly shown) [Example 59] | 0.514 | 0.604 | – |
| CC(C)[C@H](O)C(=O)N[C@H]1Cc2ccc3c(c2)C2(C4=C(c5nc(C(=O)N6CCCC6)co5)N=C(O4)[C@H](C(C)C)NC1=O)c1ccccc1N[C@H]2O3 (stereo partly shown) [Example 60] | 0.636 | 0.562 | – |

| SMILES | IC50 (A2058 cells; Homo sapiens, A2058, 48 h) [µM] | IC50 (U937 cells; Homo sapiens, U-937, 48 h) [µM] | other results |
| --- | --- | --- | --- |
| CCCCNC(=O)c1coc(-c2nc3oc2C24c5ccccc5N[C@H]2Oc2ccc(cc24)C[C@H](NC(=O)[C@@H](O)C(C)C)C(=O)N[C@H]3C(C)C)n1 (stereo partly shown) [Example 62] | 0.243 | 0.192 | – |
| CC(C)[C@H](O)C(=O)N[C@H]1Cc2ccc3c(c2)C2(C4=C(c5nc(C(=O)N6CCN(C)CC6)co5)N=C(O4)[C@H](C(C)C)NC1=O)c1ccccc1N[C@H]2O3 (stereo partly shown) [Example 63] | – | – | IC50 (A2058 cells; Homo sapiens): 0.247 µM; IC50 (U937 cells; Homo sapiens, U-937): 0.162 µM |
| CC(C)[C@H](O)C(=O)N[C@H]1Cc2ccc3c(c2)C2(C4=C(c5nc(C(=O)NC6CCCc7ccccc76)co5)N=C(O4)[C@H](C(C)C)NC1=O)c1ccccc1N[C@H]2O3 (stereo partly shown) [Example 64] | 0.184 | 0.184 | – |
| CC(C)[C@H](O)C(=O)N[C@H]1Cc2ccc3c(c2)C2(C4=C(c5nc(C(=O)N(C)C)co5)N=C(O4)[C@H](C(C)C)NC1=O)c1ccccc1N[C@H]2O3 (stereo partly shown) [Example 65] | 0.553 | 0.235 | – |
| CC(C)[C@H](O)C(=O)N[C@H]1Cc2ccc3c(c2)C2(C4=C(c5nc(C(N)=O)co5)N=C(O4)[C@H](C(C)C)NC1=O)c1ccccc1N[C@H]2O3 (stereo partly shown) [Example 66] | 0.363 | 0.218 | – |
| COC(=O)c1nc(-c2nc3oc2C24c5ccccc5N[C@H]2Oc2ccc(cc24)CC(NC(=O)[C@@H](O)C(C)C)C(=O)N[C@H]3C(C)C)oc1C (stereo partly shown) [Example 67] | 0.047 | 0.024 | – |
| COC(=O)c1nc(-c2nc3oc2C24c5ccccc5N[C@H]2Oc2ccc(cc24)C[C@H](NC(=O)[C@@H](O)C(C)(C)C)C(=O)N[C@H]3C(C)C)oc1C (stereo partly shown) [Example 68] | 0.066 | 0.057 | – |
| CCC(O)(CC)C(=O)N[C@H]1Cc2ccc3c(c2)C2(C4=C(c5nc(C(=O)OC)c(C)o5)N=C(O4)[C@H](C(C)C)NC1=O)c1ccccc1N[C@H]2O3 (stereo partly shown) [Example 69] | 0.17 | 0.081 | – |
| COC(=O)c1nc(-c2nc3oc2C24c5ccccc5N[C@H]2Oc2ccc(cc24)C[C@H](NC(=O)[C@@H](O)CC(C)C)C(=O)N[C@H]3C(C)C)oc1C (stereo partly shown) [Example 70] | 0.08 | 0.065 | – |
| COc1ccc(-c2cnc(-c3nc4oc3C35c6ccccc6N[C@H]3Oc3ccc(cc35)CC(NC(=O)[C@@H](O)C(C)C)C(=O)N[C@H]4C(C)C)o2)cc1 (stereo partly shown) [Example 71] | 0.639 | > 1 | – |
| CC(C)[C@H](O)C(=O)NC1Cc2ccc3c(c2)C2(C4=C(c5ncc(-c6ccccc6)o5)N=C(O4)[C@H](C(C)C)NC1=O)c1ccccc1N[C@H]2O3 (stereo partly shown) [Example 72] | > 1 | > 1 | – |
| CCC(O)(CC)C(=O)N[C@H]1Cc2ccc3c(c2)C2(C4=C(c5nc(CO)co5)N=C(O4)[C@H](C(C)C)NC1=O)c1ccccc1N[C@H]2O3 (stereo partly shown) [Example 74] | – | – | IC50 (A2058 cells; Homo sapiens): 0.292 µM; IC50 (U937 cells; Homo sapiens, U-937): 0.11 µM |
| CCC(O)c1coc(-c2nc3oc2C24c5ccccc5N[C@H]2Oc2ccc(cc24)C[C@H](NC(=O)[C@@H](O)C(C)C)C(=O)N[C@H]3C(C)C)n1 (stereo partly shown) [Example 75] | 0.226 | 0.229 | – |
| COCc1coc(-c2nc3oc2C24c5ccccc5N[C@H]2Oc2ccc(cc24)C[C@H](NC(=O)[C@@H](O)C(C)C)C(=O)N[C@H]3C(C)C)n1 (stereo partly shown) [Example 76] | 0.114 | 0.127 | – |
| CCCCCCc1oc(-c2nc3oc2C24c5ccccc5N[C@H]2Oc2ccc(cc24)C[C@H](NC(=O)[C@@H](O)C(C)C)C(=O)N[C@H]3C(C)C)nc1C(=O)OC (stereo partly shown) [Example 77] | 0.08 | 0.018 | – |
| CC(C)[C@H](O)C(=O)N[C@H]1Cc2ccc3c(c2)C2(C4=C(c5ncco5)N=C(O4)[C@H](C(C)C)NC1=O)c1ccccc1N[C@H]2O3 (stereo partly shown) [Example 78] | 0.154 | 0.052 | – |
| Cc1coc(-c2nc3oc2C24c5ccccc5N[C@H]2Oc2ccc(cc24)C[C@H](NC(=O)[C@@H](O)C(C)C)C(=O)N[C@H]3C(C)C)n1 (stereo partly shown) [Example 79] | 0.174 | 0.071 | – |
| CCOC(=O)c1coc(-c2nc3oc2C24c5ccccc5N[C@H]2Oc2ccc(cc24)C[C@H](NC(=O)[C@@H](O)C(C)C)C(=O)N[C@H]3C(C)C)n1 (stereo partly shown) [Example 80] | 0.021 | 0.0013 | – |
| CC(C)OC(=O)c1coc(-c2nc3oc2C24c5ccccc5N[C@H]2Oc2ccc(cc24)C[C@H](NC(=O)[C@@H](O)C(C)C)C(=O)N[C@H]3C(C)C)n1 (stereo partly shown) [Example 81] | 0.006 | 0.0014 | – |
| CC(C)[C@H](O)C(=O)N[C@H]1Cc2ccc3c(c2)C2(C4=C(c5nc(C(=O)OC(C)(C)C)co5)N=C(O4)[C@H](C(C)C)NC1=O)c1ccccc1N[C@H]2O3 (stereo partly shown) [Example 82] | 0.126 | 0.066 | – |
